Like-named read-outs stand apart in the source and are kept apart here. Where only a bound is given, the exact number is not on record here.

The half-life is the time needed for the level to fall by half in the phase considered. Broadly, the viability is a per cent measure of how many cells are alive, often set against a control.

Data set [1] concerns porcine liver esterase. The experiment in a line: CO release kinetics in the presence of porcine liver esterase (HPLC). The class given is in vitro ADME. On the procedure: […] At each defined time point, 250 μL of the reaction mixture was taken out and added into a vial containing 500 μL ethanol. The mixture was incubated in an acetone dry ice bath (−78° C.) for 5 min, and centrifuged for 9 min (14.5×1000 rp) to precipitate the esterase out. The resulting supernatant was then analyzed by HPLC (column: Waters C18 3.5 μM, 4.6×100 mm, injection loop volume: 20 μL). […] The mobile phase was acetonitrile CH3CN/H2O (containing 0.05% trifluoroacetic acid).

The subject of data set [2] is H9C2 cells. Briefly: Fluorescent imaging of CO release of 11 with COP-1. The class given is cell-based. To be noted: 11 50 μM + COP-1 1 μM. On the procedure:
(§1) Hela or H9C2 cells were seeded in 6-well plates one day before the imaging experiment. Compound 11 was dissolved in DMSO as stock solution. Final concentrations of 1 μM for COP-1 and […] were added into the cell culture. The sample without 11 was used as the negative control. After adding the compound, the cells were incubated at 37° C. for 5 hours. The cells were then fixed and taken for fluorescent images under the FITC channel (excitation: 490 nm, emission: 525 nm) using a Zeiss fluorescent microscope.

The subject of data set [3] is Hela cells. Briefly: Fluorescent imaging of CO release of 11 with COP-1. The class given is cell-based. As to conditions: 11 50 μM + COP-1 1 μM, 5 hours. The protocol:
as §1

Data set [4] can be described thus: physchem. It is filed as physicochemical. The protocol:
A solution of 10/11 (20 μM) and NaClO (40 or 60 μM) in 10% of ACN in PBS (pH=7.4) was sealed and incubated at 37° C. At each defined time point, 500 μL of the reaction mixture was taken out and added into a vial containing Na2SO3 (100 μL, 250 mM) to quench the reaction. The resulting solution was then analyzed by HPLC (column: Waters C18 3.5 μM, 4.6×100 mm, injection loop volume: 20 μL). CO release was determined by monitoring the formation of the product and the consumption of the reaction intermediate as in the case of 10 or prodrug 11. The mobile phase was acetonitrile ACN/H2O (containing 0.05% trifluoroacetic acid).

Data set [5] relates to Raw264.7 cells. The experiment in a line: Fluorescent imaging of CO release of 11 with COP-1, with or without LPS. It is filed as cell-based. As to conditions: Raw 264.7 cells, 11 50 μM + COP-1 1 μM + LPS 1 μg/mL, 5 hours. On the procedure:
For imaging studies of 11 in transformed macrophage cells, RAW 264.7 cells were seeded in 6-well plates one day before the imaging experiment. Compounds were dissolved in DMSO as stock solution. Final concentration of 1 μM COP-1, 50 μM of 11 and 1 μg/mL of LPS were added into the cell culture. The cells without 11 was used as the negative control. After adding the compound, the cells were incubated at 37° C. for 5 hours. The cells were then fixed and taken for fluorescent images under the FITC channel (excitation: 490 nm, emission: 525 nm) using a Zeiss fluorescent microscope.

Data set [6] relates to Hela cells.
Method: (§2) Towards this end, Hela cells and H9C2 cells were co-treated with 11/12 and Dox for 24 h. Then the cells were subjected to crystal violet assay for cytotoxicity evaluation. The cells treated with 11/12, or Dox only were used as controls. Additionally, the cells co-treated with Dox and compound 10a/11a/11b were employed as additional controls as well.
(§3) Hela cells and H9C2 cells were seeded in 96-well plates and cultured in DMEM supplemented with 10% FBS and 1% penicillin/streptomycin at 37° C. under 5% CO2 for 24 h. The cells were either incubated with doxorubicin (1% DMSO DMEM solution, 0 to 4 μM) or a mixture of doxorubicin and indicated compounds (1% DMSO DMEM solution, 0 to 4 μM for doxorubicin) for 24 h. After removal of the medium, the plate was washed with 150 μL/well of PBS and the cell was fixed with 4% paraformaldehyde for 1 h at room temperature. The solution in the well was then removed and 100 μL of 0.5% crystal violet staining solution was added to each well. After incubation for 15 min at room temperature, the plate was washed with 200 μL of DI water for each well twice, followed by the addition of 100 μL/well of acetic acid solution (33%) to dissolve the dye. Absorbance at 615 nm was then measured by using a Perkin Elmer 1420 multi-label counter. Cell viability was measured and the results were normalized to the vehicle group. The experiment was triplicated and the results are expressed as mean±SD (n=3).
Data set [7] has as its system Hela cells. Briefly: Crystal violet assay, co-treatment with doxorubicin. To be noted: 24 h; for synergistic effects with Dox in killing Hela cells: co-treatment with Dox.
Method: as §2, §3
In data set [8] the test system is H9C2 cells. Briefly: Crystal violet assay, co-treatment with doxorubicin and cytotoxicity. It is filed as cell-based.
Method: as §2
Hela cells and H9C2 cells were seeded in 96-well plates and cultured in DMEM supplemented with 10% FBS and 1% penicillin/streptomycin at 37° C. under 5% CO2 for 24 h. The cells were either incubated with doxorubicin (1% DMSO DMEM solution, 0 to 4 μM) or a mixture of doxorubicin and indicated compounds (1% DMSO DMEM solution, 0 to 4 μM for doxorubicin) for 24 h. After removal of the medium, the plate was washed with 150 μL/well of PBS and the cell was fixed with 4% paraformaldehyde for 1 h at room temperature. The solution in the well was then removed and 100 μL of 0.5% crystal violet staining solution was added to each well. […] Absorbance at 615 nm was then measured by using a Perkin Elmer 1420 multi-label counter. Cell viability was measured and the results were normalized to the vehicle group. The experiment was triplicated and the results are expressed as mean±SD (n=3).
Data set [9] can be described thus: Stability in the absence of ROS (HPLC). The class given is physicochemical. On the procedure:
Initially, 11 was employed to screen its sensitivity towards various ROS. […] The stability was tested by adding a solution of 11/12 (800 μL, 500 μM in acetonitrile) was added to 20 mL of PBS (pH 7.4, 10 mM) in a vial. Additional acetonitrile was added to make the final concentration of ACN 10% for all solutions. The resulting solution was incubated at 37° C. for 48 h. The solution was then analyzed using HPLC. All the experiments were triplicated, and the results are reported as mean±SD (n=3).

Data set [10] can be described thus: Sensitivity of 11 to various ROS (HPLC, formation of 11a). It is filed as physicochemical. The protocol:
The CO release profiles in the absence/presence of ROS was studied using HPLC to monitor the consumption of 10/11 and the formation of 10a/11a. Various ROS solutions were prepared according to literature procedures. A solution of 11 (400 μL, 1 mM in acetonitrile (ACN) was added to 20 mL of PBS (pH 7.4, 10 mM). […] Additional ACN was added to make the final solution contain 10% of ACN. The resulting mixture was incubated at 37° C. for 30 min. CO release was monitored by the formation of 11a using HPLC. The experiment was triplicated, and the results are reported as mean±SD (n=3).

Data set [11] relates to Raw 264.7 cells. Briefly: Cytotoxicity against Raw 264.7 cells (Cell Counting Kit-8). The class given is cell-based. As to conditions: concentrations up to 50 μM, 24 h of incubation. On the procedure: All CO prodrugs were initially screened for their cytotoxicity against Raw 264.7 cells. […] Then RAW 264.7 cells were incubated in DMEM containing 1% DMSO and compounds (0-50 μM) for 24 hours. Then 10 μL of Cell Counting Kit-8 solution was added to each well and incubated for another three hours at 37° C. The absorbance at […] was measured by using a microplate reader.
On the technique in general: Tetrazolium assays rely on reduction of a dye to a coloured formazan, in cell work by metabolically active cells.

Data set [12] can be described thus: CO release kinetics of 38 with or without H2O2 (HPLC). The class given is physicochemical. To be noted: 20% of DMSO/PBS, 37° C., read-out: beta-elimination half-life (converted). On the procedure: Solutions of 38 (20 μM) in 20% of DMSO/PB S was incubated with or without H2O2 (270 μM) at 37° C. Aliquots were taken for HPLC analysis to determine CO release kinetics by monitoring the formation of compound 25. HPLC was conducted using a Waters C18 column (3.5 LM, 4.6x 100 mm) equipped with a 20-μL injection loop and acetonitrile:water (85:15) as the mobile phase.

In the case of `CC(C)(C)C(=O)OC(OC(=O)C(C)(C)C)C1C(S(=O)(=O)c2ccccc2)[C@]2(C)C(=O)[C@]1(C)C(c1ccccc1)=C2c1ccccc1` (stereo partly drawn) [Compound 24d, ((1S,4S)-1,4-Dimethyl-7-oxo-5,6-diphenyl-3-(phenylsulfonyl)bicyclo [2.2.1]hept-5-en-2-yl)methylene bis(2,2-dimethylpropanoate)], the esterase-mediated hydrolysis result in data set [1] (in the presence of PLE, after 24 h of incubation) is recorded as “no hydrolysis was observed”.
Consider `COC(=O)C1([Se]c2ccccc2)CC2(C)C(=O)C1(C)C(c1ccccc1)=C2c1ccccc1` (stereo not drawn) [Compound 11, Methyl-1,4-dimethyl-7-oxo-5,6-diphenyl-2-(phenylselanyl)bicyclo[2.2.1]hept-5-ene-2-carboxylate], for which the “intracellular CO release” value in data set [2] is reported as “negligible CO release”. For the same compound, the “intracellular CO release (green fluorescence) compared with H9C2 cells” value in [3] is on record as “much enhanced green fluorescence”. This compound also showed a half-life at 20 µM in data set [4] (pH 7.4) of roughly 30 s. Moreover, the “intracellular CO release (green fluorescence) with LPS vs without LPS” value in data set [5] is recorded as “significantly enhanced green fluorescence”. Moreover, the “cell viability, compound only” value in [6] is listed as “no decrease in cell viability was observed”. The “synergistic effects with Dox in killing Hela cells” value in data set [7] (Hela cells) is on record as “synergistically”. Also, the “synergistic effects with Dox in killing H9C2 cells” value in [8] (H9C2 cells, co-treatment with Dox, 24 h) was “no synergistic effects were observed”. The “formation of 11a” value in data set [9] (absence of hypochlorite, 48 h of incubation) is listed as “no formation of 11a was observed”. For the same compound, the “transformation within 30 min” value in data set [10] (hydrogen peroxide (H2O2, 1 mM), 37° C.) is recorded as “less than 5%”; in data set [10] (hydroxyl radical (HO., 500 μM), 37° C.), “less than 5%”; in data set [10] (tert-butoxy radical (tBuO·, 500 μM), 37° C.) it was “less than 5%”; in [10] (tert-butyl hydroperoxide (TBHP, 500 μM), 37° C.), “less than 5%”. Moreover, the “time to complete transformation from 11 to 11a” value in data set [10] (hypochlorite (40 μM) at 37° C.) is on record as 30 min. Besides, the “sensitivity towards ROS” value in [10] (hypochlorite (ClO−), singlet oxygen (1O2) and O2−, 37° C.) was “very sensitive”.
For the compound `C[C@@]12C(=O)[C@](C)(C(c3ccccc3)=C1c1ccccc1)C(S(=O)(=O)c1ccccc1)C2C=O` (stereo partly drawn) [Compound 7, (1S,4S)-1,4-dimethyl-7-oxo-5,6-diphenyl-3-(phenylsulfonyl)bicyclo-[2.2.1]hept-5-ene-2-carbaldehyde], the “cytotoxicity (cell viability)” value in data set [11] was “no cytotoxicity was observed”.
Turning to `CCCCCSC1C(C=O)C2(C)C(=O)C1(C)C(c1ccccc1)=C2c1ccccc1` (stereo not drawn) [Compound 38], the half-life at 20 µM in [12] (20% DMSO in PBS with H2O2 (270 µM), H2O2 (270 μM)) was roughly 1.5 h; in data set [12] (20% DMSO in PBS, without H2O2), roughly 24 h.
Turning to `COC(=O)c1cc(C)c(-c2ccccc2)c(-c2ccccc2)c1C` [Compound 11a, Methyl 3′,6′-dimethyl-[1,1′:2′,1″-terphenyl]-4′-carboxylate], the “synergistic effects with Dox in killing Hela cells” value in [7] (Hela cells) is on record as “no synergistic effects were observed”.
In the case of `CC(=O)OC(OC(C)=O)C1C(S(=O)(=O)c2ccccc2)[C@]2(C)C(=O)[C@]1(C)C(c1ccccc1)=C2c1ccccc1` (stereo partly drawn) [Compound 24a, ((1S,4S)-1,4-Dimethyl-7-oxo-5,6-diphenyl-3-(phenylsulfonyl)bicyclo [2.2.1]hept-5-en-2-yl)methylene diacetate], the “time to total consumption of prodrug (to form compound 23)” value in data set [1] (porcine liver esterase (3 U/mL), 5% of DMSO in PBS (pH 7.4), 37° C.) is no more than 2 min.
As to `COc1cccc2c1C(=O)c1c(O)c3c(c(O)c1C2=O)C[C@@](O)(C(=O)CO)C[C@@H]3O[C@H]1C[C@H](N)[C@H](O)[C@H](C)O1` [Dox, doxorubicin, reference compound], the viability at 2 µM in data set [7] (Homo sapiens, HeLa, read-out: cell viability) was roughly 80%.
Take `CC12CC([Se]c3ccccc3)C(C)(C1=O)C(c1ccccc1)=C2c1ccccc1` (stereo not drawn) [Compound 10, 1,4-dimethyl-2,3-diphenyl-5-(phenylselanyl)bicyclo[2.2.1]hept-2-en-7-one]: in [4] (20 µM, pH 7.4), the “half-life of selenoxide elimination / CO release” value is “around 4 h”. In data set [4] (initial hypochlorite concentration of 40 μM, 37° C.), the “time to finish the oxidation step” value worked out at 30 s.
Regarding `COC(=O)C1([Se]c2ccccc2)CC2(C)CC1(C)C(c1ccccc1)=C2c1ccccc1` (stereo not drawn) [Compound 11b, methyl 1,4-dimethyl-5,6-diphenyl-2-(phenylselanyl)bicyclo-[2.2.1]hept-5-ene-2-carboxylate, reference compound], the “synergistic effects with Dox in killing Hela cells” value in data set [7] (Hela cells) is “no synergistic effects were observed”.
As for `Cc1ccc(C)c(-c2ccccc2)c1-c1ccccc1` [Compound 10a, 3′,6′-Dimethyl-1,1′:2′,1″-terphenyl], the “synergistic effects with Dox in killing Hela cells” value in [7] (Hela cells) is “no synergistic effects were observed”.
`CC12CC([Se]c3ccccc3)(C(=O)NCCC[P+](c3ccccc3)(c3ccccc3)c3ccccc3)C(C)(C1=O)C(c1ccccc1)=C2c1ccccc1` (stereo not drawn) [Compound 12, (3-(1,4-dimethyl-7-oxo-5,6-diphenyl-2-(phenylselanyl)bicyclo [2.2.1]hept-5-ene-2-carboxamido)propyl)triphenylphosphonium]: the cell viability result in data set [7] (Hela cells, 2 μM Dox in combination with 12 (2.5 μM)) is “around 20%”. For the same compound, the “synergistic effects with Dox in killing Hela cells” value in data set [7] (Hela cells) is on record as “synergistically”. The “cell viability, compound only” value in data set [7] (Hela cells, without Dox (0-μM group)) is listed as “no decrease in cell viability was observed”. In data set [8] (5 μM, 24 h of incubation), the “cytotoxicity against H9C2 cells” value is listed as “showed toxicity”. Besides, the “stability in the absence of ROS” value in [9] (10% ACN in PBS (pH 7.4), 37° C., 48 hours) is “very stable”.

The values are drawn from patent publication US11685711B2, “Carbon monoxide-releasing molecules triggered by physiological stimuli” (Georgia State University Research Foundation, Inc., priority 2017, dated 2023).
